Two sequences from publication PMC4838304, “Effective Design of Multifunctional Peptides by Combining Compatible Functions” (PLoS Computational Biology, 2016) can be followed below.

For test [1], the system named is pGREG546 plasmid. Briefly: Electrophoretic mobility shift assay (EMSA), DNA retention. The settings on record: 1μg pGREG546, DNA to peptide charge ratio 1:1 or 1:4, 30 minutes. It is filed as binding. An excerpt:
To test the ability of the designed peptides to bind nucleic acids, we evaluated by electrophoretic mobility shift assays (EMSAs) the retention of DNA by the designed peptides. Each EMSA was executed with peptide quantities that were multiples of the DNA to peptide charge ratio. A DNA to peptide charge ratio of 1:1 is represented by the number of positive charges of the peptide required to neutralize the negative charges of the DNA backbone. Retention in the gel is an indirect measure of the fraction of positive charges within the peptide participating in binding the DNA molecules. All EMSA assays were performed using the yeast plasmid pGREG546. As negative control, pGREG546 without any peptide was used, and as positive control the known DNA-binding cell penetrating peptide MPG was used. […] However, retention in the gel was observed when NLS was joined to any larger peptide fragment.
Fig 4 DNA binding. (A) Quantification of DNA retention obtained from three independent electrophoretic mobility shift assays. All measurements are shown and horizontal bars denote the sample mean. Representative gels are shown in (B-C).
1μg of pGREG546 plasmid was pre-incubated with the required quantity of each peptide to result in a 1:1 or 1:4 peptide charge to DNA charge ratio. Samples were incubated for 30 minutes and loaded on a 1% Agarose gel in SB buffer. DNA affinity was quantified by measuring the mean pixel intensity of the DNA bands with Fiji (http://fiji.sc) and normalizing to the intensity range between an empty spot on the gel and the intensity of the pGREG546 plasmid without any added peptide. Analysis scripts for the EMSA experiments as well as the raw data can be found with the distributed source code at http://bis.ifc.unam.mx/software/dcf.
(In general: In EMSA bound probe runs differently from free probe, usually more slowly.)

In test [2] the test system is pheromone-signaling pathway (Fus1-eGFP) in MATa cells. Briefly: Pheromone signaling assay, Fus1-GFP expression and shmoo phenotype. The settings on record: BY4741 fus1::eGFP, 60 μM peptide (20 μM for α-factor), 3h. It is filed as cell-based, Saccharomyces cerevisiae. Here is the method:
Finally, the activity of the α-factor embedded in the peptides was evaluated by activation of the pheromone-signaling pathway in MATa cells of S. cerevisiae. We monitored the pheromone signaling activity by following the expression of the GFP-labeled Fus1 protein. Fus1 is among the proteins with the highest pheromone-induced expression and is required for cell-cell fusion during mating. […] The observed phenotype was consistent with the activation of signaling showing a mating protrusion, often called “shmoo” as well as the absence of budding due to inhibition of the Cdc28 cyclin [35, 36].
Fig 5 Pheromone activity. The pheromone signaling pathway is confirmed by the expression of Fus1-GFP, characteristic “shmoo” phenotype and the absence of budding observed in differential interference contrast (DIC) bright field. Concentrations were 20 μM for α-factor and 60 μM for all other peptides. The negative control was water without any peptide.
Pheromone signaling induction in Saccharomyces cerevisiae was measured by induction of eGFP fluorescence in a BY4741 strain containing the Fus1-eGFP construct in place of the wild type Fus1 (MATa his3Δ1 leu2Δ0 met15Δ0 ura3Δ0 fus1::eGFP HIS3MX6, obtained from the yeast GFP collection). The BY4741 fus1::eGFP strain was grown overnight in YPD to mid-log phase and diluted to 10^6 cells/mL. Samples were treated with the respective peptide concentrations and incubated for 3h before mixing 1:1 with low-diffusivity agarose suspended on a covered glass slide. Images were taken with an Olympus FV10 confocal microscope using a 60x objective with […]. Images were analyzed using Fiji (www.fiji.sc). The only modifications applied to the images were separation of the bright field and GFP channels, adjustment of brightness and contrast to 50% and addition of scale bars.

Test [3] has as its system Escherichia coli strain DH5α. It counts as cell-based. The following applies: 12 h.

Ends that are not written are not given here.

In the case of “FRKWRRKPKKKRKVWWRKVKRRWHWLQLKPGQPMY [NLS-α-CE]”, the “DNA binding in EMSA, in words” value in test [1] is reported as “effective DNA-binding activity”. Further, in test [2], the “pheromone signaling activity (Fus1-GFP expression, phenotype)” value is on record as “partial shmoo-like phenotypes”. The “E. coli MIC for 100% inhibition” value in test [3] turned out to be 2 µM.

With “KRRWRFVWMNPKKKRKVPPWPYLLWWHWLQLKPGQPMY [chimera]”, the “DNA binding in EMSA, in words” value in test [1] is “effective DNA-binding activity”. In addition, in test [2], the “pheromone signaling activity (Fus1-GFP expression, phenotype)” value is reported as “partial shmoo-like phenotypes”. Also, the “E. coli MIC for 100% inhibition” value in test [3] stood at 22 µM.
